Data as given in patent publication US11060092B2, “Inhibitors of cytoplasmic histone deacetylase 4 complex for treating or preventing vascular or valve calcification” (TECHNION RESEARCH AND DEVELOPMENT FOUNDATION LTD., priority 2016, dated 2021).

Tests used:
GFP-HDAC4 in VSMCs = experiment: GFP-HDAC4 cytoplasmic/nuclear localization in transfected VSMCs (CellProfiler scoring); assay type: cell-based, mouse; settings: for cytoplasmic localization of HDAC4: VSMCs transfected with wild type GFP-HDAC4, vehicle 96.8%; for effect on HDAC4 location (nuclear accumulation / shuttling): VSMCs transfected with GFP-HDAC4
Protocol: (§1) Mouse aortic smooth muscle cells were purchased from ATCC (CRL-2797) and grown in DMEM supplemented with 10% FBS. 10 mmol/L beta-glycerophosphate (Sigma-Aldrich) and 0.2 mmol/L 2-Phospho-L-ascorbic acid (Sigma-Aldrich) were added to the growth media for 3-14 days to induce calcification (HPM). All cultured cells were maintained at 37° C. with 5% CO2.
Cell were transfected with pEGFP-HDAC4, pEGFP-HDAC4 3SA, pcDNA HDAC4-flag that were a gift from Tso-Pang Yao (Addgene plasmid #45636, #45637, #30485) [Cohen T. J. et al., The histone deacetylase HDAC4 connects neural activity to muscle transcriptional reprogramming. J Biol Chem 2007, 282, 33752-33759] or pEGFP-HDAC4 3-625 plasmid. Mouse ENIGMA (Pdlim7) or truncation mutants were cloned to pcDNA-3HA backbone plasmid. Transfections were performed using polyjet reagent (signaGen) according to manufacturer's instructions. Hdac4 siRNA (IDT), ENIGMA siRNA (GE Healthcare Life Sciences Dharmacon) LKB1 siRNA (IDT) and Sun2 siRNA (IDT) were transfected to the cells using Stemfect RNA Transfection Kit (Stemgent Inc.) according to manufacturer's instructions.
The pan-SIK, inhibitors: HG-9-91-01 (ApexBio #B1052), WH-4-023 (Sigma-Aldrich), MRT67307 (Sigma-Aldrich) and the pan-PKD and CamK inhibitors: CID-2011756 (Cayman #15317), KN-93 (Sigma-Aldrich K1285), were added to the HPM at final concentrations of 0.5, 1, 2, 5 and 10 μmol/L.
For localization and co-localization assays cell were transfected with pEGFP-HDAC4 plasmids, fixed with 4% formaldehyde in PBS, and blocked in 5% FBS in PBS. Staining for ENIGMA was done with overnight incubation of an antibody recognizing Pdlim7 (ProteinTech #10221-1-AP) in 2% FBS. Cy3-conjugated AffiniPure Donkey Anti-Rabbit IgG secondary antibody (Jackson ImmunoResearch) was used for detection. Nuclei were counterstained with DAPI 1 μg/ml. Cells were imaged using Zeiss Axio observer fluorescent microscope. Cytoplasmic and nuclear localization analysis was performed automatically on acquired images using CellProfiler cell image and analysis software [Carpenter A. E. et al., CellProfiler: image analysis software for identifying and quantifying cell phenotypes. Genome Biol 2006, 7, R100].

bone mass = settings: once daily treatment; cited from earlier work
hepatocytes = settings: cited from earlier work
aortic rings = experiment: Aortic rings assay in HPM (qRT-PCR of osteochondrogenic markers, Von Kossa stain); assay type: cell-based, mouse; settings: aortic rings 14 days in HPM
Protocol: Aortas were either fresh frozen in OCT sliced into section with a cryostat or fixed in 4% formaldehyde, embedded in paraffin and cut into thin sections. Slides were stained to detect calcium depositions with Alizarin red or Von Kossa stains. Alizarin red: slides were incubated in 2% alizarin red (Sigma-Aldrich) for 5 minutes at room temperature, excess stain was washed in DDW. Von Kossa: slides were incubated for 20 minutes in 5% silver nitrate (Sigma-Aldrich), washed twice in DDW, immersed in 0.5% hydroquinone (Sigma-Aldrich) for 2 minutes followed by 2 minutes of 5% sodium thiosulfate (Alfa Aesar).
Aortic rings were prepared as described [Nature protocols, Use of the mouse aortic ring assay to study angiogenesis.—PubMed—NCBI, Last updated January 2012, Accessed on January 2012]. In brief, adult C57BL/6 mice were euthanized with isoflurane; thoracic aorta was dissected, cleaned under a microscope and cut into rings. […]
RNA was extracted from cultured cell using the NucleoSpin RNA kit (MACH EREY-NAGEL). […] Quantitative real-time PCR was performed with iTaq universal SYBR green supermix (Bio-Rad) using Bio-Rad CFX96 real time system. Previous study has shown that Actb was among the most stably expressed genes in differentiating osteoblasts [Stephens A. S, et al., Internal control genes for quantitative RT-PCR expression analysis in mouse osteoblasts, osteoclasts and macrophages. […]

VSMCs [1] = experiment: O-cresolphthalein calcium colorimetric assay of VSMCs (matrix calcification); assay type: cell-based, mouse; settings: VSMCs in HPM, 14 days, normalized to protein concentration
Protocol: as §1
After 14 days of growth cells were washed in PBS and incubated overnight in 0.6N HCl. HCl was collected and calcium content was measured using o-cresolphthalein Calcium colorimetric assay kit (Sigma-Aldrich) according to manufacture instructions. Calcium concentration was then normalized to cells protein concentration.

aortic calcification = experiment: Vitamin D3 induced aortic calcification in ApoE-/- mice (Von Kossa, Alizarin red); assay type: in vivo, mouse; settings: vitamin D3 overload, 5 mg/Kg/day IP then osmotic pump
Protocol: ApoE^−/− mice were purchased from The Jackson Laboratory. All animals were housed in a temperature-controlled environment with 12 hours light/dark cycles with food and water available ad libitum. Mice were aged 8 weeks when entering the study. Aortic calcification was induced via vitamin D3 overload as previously described [Idelevich A, Rais Y, Monsonego-Ornan E (2011) Bone Gla Protein Increases HIF-1-Dependent Glucose Metabolism and Induces Cartilage and Vascular Calcification. Arterioscler Thromb Vasc Biol 31: e55-e71]. 1α,25-Dihydroxyvitamin D3 (Sigma-Aldrich) was dissolved in 100% ethanol and diluted freshly. Mice received IP injections of 1α,25-Dihydroxyvitamin D3 for six consecutive days at a final concentration of 5 μg/Kg in 5% ethanol. SIK inhibition was achieved by daily administration of HG-9-91-01 (ApexBio #B1052) in DMSO at a final concentration of 5 mg/Kg/day. Littermate ApoE−/− mice were arbitrarily divided to receive treatment or control. In the first 4 days HG-9-91-01 was injected IP and on day 5 osmotic pumps (Alzet model 1002) were implanted. Animals were monitored daily and terminated for study at day 18. Specifically, mice were sacrificed in isoflurane and aortas were collected for histology. All mice procedures were performed in accordance with institutional guidelines. […]

VSMCs [2] = experiment: qRT-PCR of osteochondrogenic markers in VSMCs; assay type: cell-based, mouse; settings: VSMCs grown 7 days in HPM, 1 μM vs DMSO
Protocol: as §1
RNA was extracted from cultured cell using the NucleoSpin RNA kit (MACH EREY-NAGEL). The RNeasy Fibrous Tissue mini and midi kits (Qiagen) were used to extract RNA from aortic rings and human tissue (respectively). All kits were used in accordance with manufacturer protocol. Reverse transcription was done using iScript reagent (Bio-Rad). Quantitative real-time PCR was performed with iTaq universal SYBR green supermix (Bio-Rad) using Bio-Rad CFX96 real time system. Previous study has shown that Actb was among the most stably expressed genes in differentiating osteoblasts [Stephens A. S, et al., Internal control genes for quantitative RT-PCR expression analysis in mouse osteoblasts, osteoclasts and macrophages. BMC Res Notes 2011, 4, 410], and therefore expression data were normalized to the expression of Actb. For each expression analysis we used at least two different experiments, at least four biological replicates, and two technical replicates for each biological replicates for each gene. We performed a standard curve for each primer pair. […]

SMILES | cytoplasmic localization of HDAC4 (GFP-HDAC4 in VSMCs; 10 μmol/L) | effect on HDAC4 location (nuclear accumulation / shuttling) (GFP-HDAC4 in VSMCs) | other results
COc1ccc(S(=O)(=O)N(CCO)c2ccccc2CN(C)C/C=C/c2ccc(Cl)cc2)cc1 [KN-93] | 91.6% | did not significantly affect the location of HDAC4 | 
O=C(NCCCNc1nc(Nc2cccc(CN3CCOCC3)c2)ncc1C1CC1)C1CCC1 [MRT67307] |  | induced the shuttling of HDAC4 to the nucleus | 
COc1ccc(N(C(=O)Oc2c(C)cccc2C)c2ccnc(Nc3ccc(N4CCN(C)CC4)cc3)n2)c(OC)c1 [WH-4-023] |  | induced the shuttling of HDAC4 to the nucleus | 
CCC(=C/[C@H](C)C/C=C/C(C)=C/[C@@H](C)C(=O)[C@@H](C)[C@H](O)[C@@H](C)C/C(C)=C/C(=O)O)/C=C/[C@@H]1OC(=O)C=C[C@@H]1C [Leptomycin B, leptomycin B] |  | induced nuclear accumulation of GFP-HDAC4 | 
COc1ccc(N2C(=O)N(c3c(C)cccc3Cl)Cc3cnc(Nc4ccc(C5CCN(C)CC5)cc4OC)nc32)nc1 [YKL-05-099] |  |  | skeletal effects / bone mass (bone mass): mimic skeletal effects of PTH and increase bone mass
COc1ccc(N(C(=O)Nc2c(C)cccc2C)c2cc(Nc3ccc(N4CCN(C)CC4)cc3)ncn2)c(OC)c1 [HG-9-91-01] | 14.4% | induced nuclear import of HDAC4 in a dose dependent manner | gluconeogenic gene expression and glucose production (hepatocytes): enhanced gluconeogenic gene expression and glucose production in hepatocytes; matrix calcification (Von Kossa stain) (aortic rings): blunted; upregulation of the osteochondrogenic genes (aortic rings; 1 μM vs DMSO): blunted; matrix calcification (matrix calcium) (VSMCs [1]): blunted; development of aortic medial calcifications (aortic calcification): markedly blunted the development of these calcifications; upregulation of the osteochondrogenic genes (VSMCs [2]): blunted the upregulation of the osteochondrogenic genes; cytoplasmic localization of HDAC4 (GFP-HDAC4 in VSMCs; 0.5 μmol/L): 97.4%; cytoplasmic localization of HDAC4 (GFP-HDAC4 in VSMCs; 2 μmol/L): 75.7%
O=C(Nc1ccc(CN2CCOCC2)cc1)c1ccc(-c2cccc(Cl)c2)o1 [CID 2011756] | 99.6% | did not significantly affect the location of HDAC4 | 
